Data published in patent US20030152628A1, “Dual release formulation comprising levodopa ethyl ester and a decarboxylase inhibitor in an immediate-release layer with levodopa ethyl ester in a controlled release core” (priority 2001, published 2003).
Converted amounts (≈) assume the structure as drawn.

Columns and labels:
[1] = Solubility and stability properties of the active materials
[2] = Solubility at ˜22-24° C. versus pH; assay type: physicochemical
Description: However, carbidopa and LDEE, examples of two active materials in the composition of the present invention, have different chemical and physical properties and contrasting solubility characteristics especially in acid conditions, i.e., in the gastrointestinal tract (see Table 1).

SMILES | solubility in water [1] | sensitivity to moisture / hydrolysis [1] | stability at room temperature ([1]; kept under refrigeration (2-8° C.)) | Solubility ([2]; pH 1.0) [mg/mL] | Solubility ([2]; pH 5.0) [mg/mL]
C[C@@](Cc1ccc(O)c(O)c1)(NN)C(=O)O [Carbidopa, carbidopa, reference compound] | slightly soluble |  |  |  | 
CCOC(=O)[C@@H](N)Cc1ccc(O)c(O)c1 [LDEE, levodopa ethyl ester] |  | highly sensitive to moisture, undergoes hydrolysis easily | not stable at room temperature | 2200 (≈ 9770 mM) | 1700 (≈ 7550 mM)
